The values below come from patent publication US20090099167A1, “Organic compounds” (Novartis Institutes for Biomedical Research, priority 2004, published 2009).

Like-named read-outs stand apart in the source and are kept apart here.

Data set [1] has as its target Cdk1/cycB (UniProt P06493). As to the kind of experiment: Cdk1/cycB kinase assay, histone H1 substrate. The following applies: Table 4; read-out: Cdk1, activity (IC50 for kinase inhibition). Format: biochemical, starfish. Here is the method:
The inhibition of Cdk1 can be determined as follows: Cdk1/cycB: Cdk1/cycB are obtained from ProQinase, Freiburg, Germany. Starfish oocytes are induced to enter M phase of the cell cycle with 10 μM 1-methyladenine and frozen in liquid nitrogen and stored at −80° C. […] Briefly, the supernatant from oocytes is equilibrated for 30 min at 4° C. under constant rotation with the p9^CKShs-sepharose beads. The beads are extensively washed and active cdk1/cycB kinase is eluted with purified p9^CKShs (3 mg/ml). […] The assay is carried with slight modifications in 96-well plates at ambient temperature for 20 min. […] The reaction is terminated by addition of 25 μl 0.05 M EDTA pH 7.0. An aliquot of 40 μl is spotted with a multichannel dispenser on Immobilon P membranes mounted in a Millipore Microtiter filter manifold connected to a low vacuum source. After elimination of liquid, the membrane is transferred to a sequence of 4 washing baths containing 0.5% H3PO4 and one with EtOH (shaking incubation for 10 min each), dried, mounted onto a Hewlett Packard TopCount manifold added 10 μl Microscint® and counted. […] Cells were seeded at 2.5×10^7 cells per 150 mm dish and allowed to attach to a 150 mm dish for 1 hr at RT. Media (SF900II containing 10% FBS) is aspirated and recombinant baculovirus; GST-C-Raf-1, v-Ras and v-Src are added at MOI of 3.0, 2.5 and 2.5 receptively in a total volume of 4-5 mL. Cells are incubated for 1 hr at RT and then 15 mL of medium is added. Infected cells are incubated for 48-72 hr at 27° C. Infected Sf21 cells are scraped and collected into a 50 mL tube and centrifuged for 10 min at 4° C. at 1100 g in a Sorvall centrifuge. The cell pellet is washed once with ice cold PBS and lysed with 0.6 mL lysis buffer per 2.5×10^7 cells. Complete lysis of cells is achieved after 10 min on ice with occasional pipetting. […] GST-c-Raf-1 was allowed to bind to the beads at 4° C. for 1 hr with rocking. Bound GST-c-Raf-1 with beads was transferred to a column. The column is washed once with lysis buffer and twice with ice cold Tris buffered saline. Ice cold elution buffer is added and column flow is stopped to allow the free glutathione to disrupt the interaction of GST-c-Raf-1 with glutathione sepharose beads. Fractions (1 mL) are collected into pre-chilled tubes. Each tube contains 10% glycerol (final concentration) to maintain kinase activity during freeze thaw cycles. Purified fractions of GST-c-Raf-1 kinase protein are stored at −80° C.

In data set [2] the target is T1, human EphB4 receptor (Homo sapiens, UniProt P54760).
T1 construct: made in house; host or cells: Sf9 or Sf21 (baculovirus)
T1 sequence (P54760 566-987): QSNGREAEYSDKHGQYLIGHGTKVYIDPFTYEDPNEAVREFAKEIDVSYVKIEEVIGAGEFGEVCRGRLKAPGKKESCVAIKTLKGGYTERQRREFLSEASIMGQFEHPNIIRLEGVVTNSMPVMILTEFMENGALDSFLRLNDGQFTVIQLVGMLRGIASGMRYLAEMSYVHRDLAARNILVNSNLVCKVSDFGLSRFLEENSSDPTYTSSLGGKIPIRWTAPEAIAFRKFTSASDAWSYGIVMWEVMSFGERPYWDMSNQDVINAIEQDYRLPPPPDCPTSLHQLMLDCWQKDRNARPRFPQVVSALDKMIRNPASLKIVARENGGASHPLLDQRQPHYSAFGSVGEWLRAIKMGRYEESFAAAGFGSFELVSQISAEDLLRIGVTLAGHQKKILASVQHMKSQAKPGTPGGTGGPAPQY
As to the kind of experiment: EphB4 kinase assay, GST-EphB, 33P incorporation into poly(Glu,Tyr). Format: biochemical. An excerpt:
EphB4: Production and measure of enzymatic activity: Generation of Bac-to-Bac™ (Initrogen Life Technologies, Basel, Switzerland) GST-fusion expression vectors: Entire cytoplasmatic coding regions of the EphB-class are amplified by PCR from cDNA libraries derived from human placenta or brain, respectively. Recombinant baculovirus are generated that express the amino acid region 566-987 of the human EphB4 receptor (SwissProt Database, Accession No. P54760). GST sequence is cloned into pFastBac1® vector (Invitrogen Life Technologies, Basel, Switzerland) and PCR amplified. cDNAs encoding EphB4-receptor domains, respectively, are cloned in frame 3′prime to the GST sequence into this modified FastBac1 vector to generate pBac-to-Bac™ donor vectors. Single colonies arising from the transformation are inoculated to give overnight cultures for small scale plasmid preparation. […] By automated sequencing the inserts and approximately 50 bp of the flanking vector sequences are confirmed on both strands. Production of viruses: Viruses for each of the kinases are made according to the protocol supplied by GIBCO if not stated otherwise. In brief, transfer vectors containing the kinase domains are transfected into the DH10Bac cell line (GIBCO) and plated on selective agar plates. Colonies without insertion of the fusion sequence into the viral genome (carried by the bacteria) are blue. Single white colonies are picked and viral DNA (bacmid) isolated from the bacteria by standard plasmid purification procedures. Sf9 cells or Sf21 cells are then transfected in 25 cm2 flasks with the viral DNA using Cellfectin reagent according to the protocol. Purification of GST-tagged kinases: The centrifuged cell lysate is loaded onto a 2 mL glutathione-sepharose column (Pharmacia) and washed three times with 10 mL of 25 mM Tris-HCl, pH 7.5, 2 mM EDTA, 1 mM DTT, 200 mM NaCl. The GST-tagged proteins are then eluted by 10 applications (1 mL each) of 25 mM Tris-HCl, pH 7.5, 10 mM reduced-glutathione, 100 mM NaCl, 1 mM DTT, 10% Glycerol and stored at −70° C. Protein kinase assays: The activities of protein kinases are assayed in the presence or absence of inhibitors, by measuring the incorporation of 33P from [γ33P]ATP into a polymer of glutamic acid and tyrosine (poly(Glu,Tyr)) as a substrate. The kinase assays with purified GST-EphB (30 ng) are carried out for 15-30 min at ambient temperature in a final volume of 30 μL containing 20 mM Tris.HCl, pH 7.5, 10 mM MgCl2, 3-50 mM MnCl2, 0.01 mM Na3VO4, 1% DMSO, 1 mM DTT, 3 μg/mL poly(Glu,Tyr) 4:1 (Sigma; St. Louis, Mo., USA) and 2.0-3.0 μM ATP (γ-[33P]-ATP 0.1 μCi). The assay is terminated by the addition of 20 μL of 125 mM EDTA. Subsequently, 40 μl of the reaction mixture are transferred onto Immobilon-PVDF membrane (Millipore, Bedford, Mass., USA) previously soaked for 5 min with methanol, rinsed with water, then soaked for 5 min with 0.5% H3PO4 and mounted on vacuum manifold with disconnected vacuum source. After spotting all samples, vacuum is connected and each well rinsed with 200 μl 0.5% H3PO4. Membranes are removed and washed 4× on a shaker with 1.0% H3PO4, once with ethanol. Membranes are counted after drying at ambient temperature, mounting in Packard TopCount96-well frame, and addition of 10 μL/well of Microscint™ (Packard). IC50 values are calculated by linear regression analysis of the percentage inhibition of each compound in duplicate, at four concentrations (usually 0.01, 0.1, 1 and 10 μM). One unit of protein kinase activity is defined as 1 nmole of 33P ATP transferred from [γ33P] ATP to the substrate protein per minute per mg of protein at 37° C. Compounds of formula I show EphB4 inhibition down to 10 nM, preferably IC50 values between 0.01-1.0 μM.

Compound `CCN(CC)C1CCN(c2cccc(-c3cnn4c(N)c(-c5ccc(F)cc5)c(C)nc34)c2)CC1` [Example 105, 3-[3-(4-Diethylamino-piperidin-1-yl)-phenyl]-6-(4-fluoro-phenyl)-5-methyl-pyrazolo[1,5-a]pyrimidin-7-ylamine] yielded a melting point of 208 to 210 °C. Take `CN(C)c1ccc(-c2cnn3c(N)c(-c4ccc(NS(=O)(=O)c5cccc(Cl)c5Cl)cc4)cnc23)cc1` [Example 10, N-{4-[7-Amino-3-(4-dimethylamino-phenyl)-pyrazolo[1,5-a]pyrimidin-6-yl]-phenyl}-2,3-dichloro-benzenesulfonamide]: the melting point fell in the range of 143 to 146 °C. Turning to `COc1cccc(-c2cnc3c(-c4ccc(N5CCN(C)CC5)cc4)cnn3c2N)c1` [Example 2, 6-(3-Methoxy-phenyl)-3-[4-(4-methyl-piperazin-1-yl)-phenyl]-pyrazolo[1,5-a]pyrimidin-7-ylamine], the IC50 in data set [1] is below 10 µM. Consider `Cn1cc(-c2cnn3c(N)c(-c4cccc(O)c4)cnc23)c2ccccc21` [Example 45, 3-[7-Amino-3-(1-methyl-1H-indol-3-yl)-pyrazolo[1,5-a]pyrimidin-6-yl]-phenol], for which the concentration for half-maximal inhibition (IC50) in data set [2] (Table 4, read-out: EphB4, activity (IC50 for kinase inhibition)) was below 10 µM. `COc1ccc(N2CCN(C)CC2)cc1-c1cnn2c(N)c(-c3cccc(Cl)c3)c(C)nc12` [Example 74, 6-(3-Chloro-phenyl)-3-[2-methoxy-5-(4-methyl-piperazin-1-yl)-phenyl]-5-methyl-pyrazolo[1,5-a]pyrimidin-7-ylamine]: the melting point was in the range of 116 to 121 °C. The IC50 in data set [2] (Table 5, read-out: EphB4, IC50 class) is below 1 µM. As for `CCN(CC)C1CCN(c2cccc(-c3cnn4c(N)c(-c5cccc(Cl)c5)c(C)nc34)c2)CC1` [Example 104, 6-(3-Chloro-phenyl)-3-[3-(4-diethylamino-piperidin-1-yl)-phenyl]-5-methyl-pyrazolo[1,5-a]pyrimidin-7-ylamine], the melting point was in the range of 163 to 168 °C. The same measure, in the same setting: the same measure for `CN(C)c1ccc(-c2cnn3c(N)c(-c4ccc(OS(=O)(=O)c5ccc(Cl)cc5)cc4)cnc23)cc1` [Example 11, 4-Chloro-benzenesulfonic acid 4-[7-amino-3-(4-dimethylamino-phenyl)-pyrazolo[1,5-a]pyrimidin-6-yl]-phenyl ester]: 186 to 188 °C. Take `CN1CCN(c2cccc(-c3cnn4c(N)c(-c5ccccc5O)cnc34)c2)CC1` [Example 37, 2-{7-Amino-3-[3-(4-methyl-piperazin-1-yl)-phenyl]-pyrazolo[1,5-a]pyrimidin-6-yl}-phenol]: in data set [1], the IC50 was below 10 µM.
